Test results reported in US20090093538A1, “Method for treating cancer” (priority 2007, published 2009).

Columns and labels:
[1] = test system: Hs294T (or MDA-MB-435) cells; test: Affymetrix transcriptional profiling; type: cell-based, human; conditions: 100 nM, 6 hours
Description: RNA was isolated from the cells 6 hours after treatment using the RNeasy kit according to the manufacturers instructions (Qiagen Cat. # 71404) and RNA quality was confirmed by spectrophotometric examination. cDNA was synthesized using the One-Cycle cDNA Synthesis Kit (Affymetrix Cat. # 900431) according to the manufacturers instructions. cDNA was labeled using the GeneChip IVT Labeling Kit (Affymetrix Cat. #900449) and analyzed in duplicate on the Affymetrix Human Genome U133Plus 2.0 gene chip array according to standard Affymetrix protocols. Data sheets from the Affymetrix Gene Chip Scanner 3000 were imported into Microsoft Excel and filtered by the following criteria: greater than or equal to 1.5 fold increase, greater than or equal to 0.4SE between replicates; and 50 (low stringency) or 500 (high stringency) for the lowest signal.
NAC is the rate-limiting amino acid for the production of the antioxidant glutathione. Addition of NAC to cells increases the levels of endogenous glutathione which in turn blocks oxidative stress and ROS generation. […] RNA was isolated from the cells 6 hours after treatment and Affymetrix analysis was performed as above.

Hsp70 [2] = test: Cell surface expression of Hsp70, MCF-7 cells (immunofluorescence); type: cell-based, human; conditions: MCF-7, 0.5 μM, 3 hrs
Description: (§1) After treatment, cells were rinsed one time in PBS then fixed in 2% Paraformaldehyde at room temperature for 20 minutes. Slides with the fixed cells were rinsed with PBS two times. Primary antibody mouse monoclonal anti-Hsp70 (Stressgen SPA-8 10) was diluted 1:100 in PBS and the slides were incubated 1 hour at 37° C. The slides were rinsed two times with PBS. Secondary antibody anti-mouse AlexaFluor 488 (Molecular Probes A-11001) was diluted 1:500 in PBS and the slides were incubated 30 min at 37° C. The slides were rinsed two times in PBS. DAPI (Molecular Probes D-3571) were diluted 1:10,000 in PBS and the slides were incubated at room temperature in dark for 5 min. The slides were rinsed two times in PBS, then once in deionized water and left to dry in dark until almost completely dry. Coverslips were mounted with Prolong Anti-fade Mounting Media (Molecular Probes P-748 1). The images were captured with a monochrome CCD camera SenSys (see FIGS. 27A-D and 28A-D) or by confocal microscopy (see FIG. 29A-E). In FIGS. 27A-D and 28A-D, the bright pink color on the surface of the MCF-7 cells (FIG. 27A-D) or CEM cells (FIG. 28A-D) indicates Hsp70 on the surface of the cells. In FIG. 29A-E the bright green color on the surface of the cell indicates Hsp70 on the surface of the HT29 cells.

Hsp70 [3] = test: Cell surface expression of Hsp70, CEM cells (immunofluorescence); type: cell-based; conditions: 3 hrs
Description: as §1

Hsp70 [4] = test: Cell surface expression of Hsp70, HT29 cells (confocal microscopy); type: cell-based, human; conditions: HT29, 500 nM, 6 hrs
Description: as §1

HSB2 cells = test: Apoptosis, Annexin V / propidium iodide FACS; type: cell-based
Description: To confirm that the ability of NAC to block Compound 1-induced cell death was not cell-line specific, we examined the role of oxidative stress in two additional cell lines by FAC analysis. RAMOS and HSB2 cells (ATCC) were seeded in 6-well plates at 1×10^6 cells/well/4 mL and incubated at 37° C. for 4 hours. […] After incubation the cells were stained with Annexin V and propidium iodide (Vybrant Apoptosis assay kit, Cat# V13241, Invitrogen, Molecular Probes) for measuring apoptotic cells by FACS analysis.
The cells were harvested and stained with Annexin V and propidium iodide for measuring apoptotic cells by FACS analysis.

MSK1 = MSK1 phosphorylation, Western blot, MDA-MB-435 cells; type: cell-based, human; conditions: 10, 50, 100, 500 or 1000 nM, 4 hours
Description: After treatment the cells were lysized and used for Western blot analysis.
Samples were run on a SDS-PAGE gel and proteins were transferred onto a nitrocellulose membrane by a semi-dry transfer. Nitrocellulose was blocked with 5% skim milk in TBS with 0.5% Tween at room temperature for 1 hour and then probed with anti-p-MSK1 (Thr581) (#9595, Cell Signaling) antibody. The nitrocellulose was then probed with secondary antibodies, HRP-conjugated goat anti-rabbit IgG and HRP-conjugated horse anti-mouse IgG (#7074, #7076, Cell Signaling). LumiGLO reagent, 20× Peroxide (#7003, Cell Signaling) was used to visualize gel (see FIG. 36).
Samples were run on a SDS-PAGE gel and proteins were transferred onto a nitrocellulose membrane by a semi-dry transfer. Nitrocellulose was blocked with 5% skim milk in TBS with 0.5% Tween at room temperature for 1 hour and then probed with anti-p-MSK1 (Thr581) (#9595, Cell Signaling) antibody. Tubulin was used as a normalization control and was probed with Anti-Tubulin (T9026, Sigma) antibody.

Ramos cells = test: ROS generation, carboxy-H2DCFDA probe, flow cytometry; type: cell-based
Description: In these experiments, we monitored the production of ROS using the cell permeable Carboxy-H2DCFDA probe. When this probe is oxidized by ROS, it emits a green fluorescence that can be detected using flow cytometry or fluorescent microscopy. […] 25 μM carboxy-H2DCFDA (Invitrogen. C400) working solution was added to cover the cells, and the cells were incubate for 30 minutes at 37° C., protected from light. The cells were gently washed three times in warm HBSS/Ca/Mg. ROS levels, as determined by fluorescence intensity, were determined by flow cytometry (excitation at 495 nm, emission at 529 nm).
Tiron is a direct scavenger of ROS and is a potent inhibitor of oxidative stress.
Ramos cells were treated with elesclomol (500 nM) for the indicated times then washed gently once with warm HBSS/Ca/Mg (Invitrogen Carlsbad, Calif. Cat# 14025). 25 μM carboxy-H2DCFDA (Invitrogen Cat #C400) working solution was added to cover the cells and they were incubated for 30 minutes at 37° C., protected from light. The cells were gently washed three times in warm HBSS/Ca/Mg. ROS levels (fluorescence intensity) were determined by flow cytometry (excitation at 495 nm, emission at 529 nm) using a Becton Dickinson FACSCalibur equipped with CellQuest Pro software. Data is plotted as percent of elesclomol-treated cells with DCFDA fluorescence relative to DMSO (control) treated cells (see FIG. 49).

[5] = human, in vivo
[6] = Compound 1 0.2 μM plus NAC 5 mM, 20 hours
[7] = Compound 1 0.2 μM, 20 hours (FIG. 39D)

Compound: CN(NC(=O)CC(=O)NN(C)C(=S)c1ccccc1)C(=S)c1ccccc1 [Compound 1]
- increase in transcription of Hsp70 [1]: over 300 fold
- induction of heat shock and metallothionein genes ([1]; Hs294T melanoma cells): robustly induced heat shock and metallothionein genes
- gene expression profile (heat shock proteins, metallothioneins, antioxidants) ([1]; MDA-MB-435 cells): induces an oxidative stress signature profile
- Hsp70 on the surface of cells (Hsp70 [2]): bright pink fluorescent color on the surface of the cells indicating Hsp70
- Hsp70 on the surface of cells (Hsp70 [2]; then 2 hrs recovery without Compound 1): stronger than immediately following treatment with Compound 1
- Hsp70 on the surface of cells (Hsp70 [3]; 0.05 μM): bright pink fluorescent color on the surface of the cells indicating Hsp70
- Hsp70 on the surface of cells (Hsp70 [3]; 0.1 μM): brighter than when cells were treated with 0.05 μM of Compound 1
- Hsp70 on the surface of cells (Hsp70 [3]; 0.5 μM): brighter than when cells were treated with 0.05 μM of Compound 1 but about the same as cells treated with 0.1 KIM
- Hsp70 on the surface of cells (Hsp70 [4]): bright green color on the surface of the cells indicating Hsp70
- early apoptotic cells (HSB2 cells; 200 nM Compound 1, 24 hours (DMSO 12%)): 45%
- cells in early stages of apoptosis (HSB2 cells; [6]): 2.9%
- cells in late stages of apoptosis (HSB2 cells; [6]): 3.8%
- early apoptotic cells (HSB2 cells; Compound 1 0.2 μM plus NAC 5 mM, 24 hours): 6%
- cells in early stages of apoptosis (HSB2 cells; [7]): 26.6%
- cells in late stage apoptosis (HSB2 cells; [7]): 41.5%
- phosphorylation of MSK1 (MSK1): induces the phosphorylation of MSK1 in a dose dependent manner
- generation of ROS (Ramos cells; 0.5 μM, 24 hours): induced the generation of ROS
- earliest time at which induction of ROS was observed (Ramos cells; Ramos cells, time course): 3 h
- serious side effects [5]: No serious side effects specifically attributable to Compound 1 were observed
